Results: patent US20240383908A1, “SYNTHESIS AND APPLICATION OF PHOSPHATASE DEGRADER” (HINOVA PHARMACEUTICALS INC., priority 2021, published 2024)

What was measured:
SHP2 protein [1] = target: T1, SHP2 protein (Homo sapiens, UniProt Q06124); test: Degradation activity on SHP2 protein in MV-411 cells (Western blot, DC50); format: cell-based; set-up: endogenous in cells; details: MV411 cells, 24 hours, read-out: Degradation activity for differenct cell lines MV411 (DC50)
T1 sequence (Q06124 1-593): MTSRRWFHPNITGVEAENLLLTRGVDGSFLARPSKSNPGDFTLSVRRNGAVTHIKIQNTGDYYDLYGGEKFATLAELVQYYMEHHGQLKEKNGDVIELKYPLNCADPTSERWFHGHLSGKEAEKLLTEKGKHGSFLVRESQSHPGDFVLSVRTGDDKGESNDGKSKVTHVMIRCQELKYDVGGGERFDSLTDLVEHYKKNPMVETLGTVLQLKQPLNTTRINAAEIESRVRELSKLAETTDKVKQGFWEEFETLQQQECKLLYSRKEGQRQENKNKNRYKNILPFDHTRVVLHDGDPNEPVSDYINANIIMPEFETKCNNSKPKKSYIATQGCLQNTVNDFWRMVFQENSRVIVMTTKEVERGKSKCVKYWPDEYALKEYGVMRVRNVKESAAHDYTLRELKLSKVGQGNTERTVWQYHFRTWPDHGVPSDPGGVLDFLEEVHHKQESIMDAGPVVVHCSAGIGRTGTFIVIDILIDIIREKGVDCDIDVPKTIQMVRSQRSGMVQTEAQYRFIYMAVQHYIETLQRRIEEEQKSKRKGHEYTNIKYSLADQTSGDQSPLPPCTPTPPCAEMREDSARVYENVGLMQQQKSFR
Procedure, shortened: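 Western blot of SHP2 (GAPDH loading control, 30 μg protein/lane) in lysates of MV-411 cells exposed 24 h to final compound concentrations of 100, 10, 3, 1, 0.3 and 0.1 nM (0.1% DMSO). Degradation relative to DMSO set at 100%; DC50 derived by curve fitting.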

SHP2 protein [2] = target: T1, SHP2 protein; test: Degradation activity on SHP2 protein in MIA Paca-2 cells (Western blot, DC50); format: cell-based; set-up: endogenous in cells; host or cells: MIA Paca-2 cells; details: read-out: Degradation activity for differenct cell lines MIA Paca-2 (DC50)
Procedure, shortened: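 DC50 is the concentration degrading 50% of SHP2 relative to DMSO control. It was derived by fitting Western blot band densitometry (anti-SHP2, GAPDH reference) from cells exposed 24 h to 0.1–100 nM compound in 0.1% DMSO.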

SMILES	DC50 (SHP2 protein [1]) [µM]	DC50 (SHP2 protein [2]) [µM]
Cc1ncsc1-c1ccc([C@H](C)NC(=O)[C@@H]2C[C@@H](O)CN2C(=O)[C@@H](NC(=O)c2cnc(N3CCC4(CN(CCCCCCC(=O)Nc5cccc(Sc6cnc(N7CCC(C)(N)CC7)cn6)c5)C4)C3)nc2)C(C)(C)C)cc1 [Compound 90]	< 0.1	< 0.1
CC1(N)CCN(c2cnc(Sc3cccc(NC(=O)CCCCCCCN4CC5(CCN(c6ccc(COc7cccc8c7CN(C7CCC(=O)NC7=O)C8=O)nn6)C5)C4)c3)cn2)CC1 (stereo not drawn) [Compound 107]	< 0.1	> 1
CC1(N)CCN(c2cnc(Sc3cccc(NC(=O)CCCCCCN4CC5(CCN(c6ccc(C#Cc7ccc8c(c7)CN(C7CCC(=O)NC7=O)C8=O)nn6)C5)C4)c3)cn2)CC1 (stereo not drawn) [Compound 157]	< 0.1	> 1
O=C1CCC(N2Cc3cc(CNC(=O)c4ccc(N5CCC6(CN(CCCCCCC(=O)Nc7cccc(Sc8cnc(N9CCC%10(CCNC%10)CC9)cn8)c7)C6)C5)nn4)ccc3C2=O)C(=O)N1 (stereo not drawn) [Compound 112]	< 0.1	> 1
Cc1cc(N2CCC3(CN(CCCCCCC(=O)Nc4cccc(Sc5cnc(N6CCC(N)(CO)CC6)cn5)c4)C3)C2)cnc1C(=O)NCc1ccc2c(c1)CN(C1CCC(=O)NC1=O)C2=O (stereo not drawn) [Compound 208]	< 0.1	> 1
CC1(N)CCN(c2cnc(Sc3cccc(NC(=O)CCCCCOc4ccc(C5CC5C(=O)NCc5ccc6c(c5)C(=O)N(C5CCC(=O)NC5=O)C6)cc4)c3)cn2)CC1 (stereo not drawn) [Compound 189, 2-(4-((6-((3-((5-(4-amino-4-methylpyridin-1-yl)pyrazin-2-yl)thio)phenyl)amino)-6-oxohexyl)oxy)phenyl)-N-((2-(2,6-dioxopiperidin-3-yl)-3-oxoisoindol-5-yl)methyl)cyclopropane-1-formamide]	< 0.1	> 1
CC1(N)CCN(c2cnc(Sc3cccc(NC(=O)CCCCCCCCCCNc4ccc(C(=O)NCc5ccc6c(c5)CN(C5CCC(=O)NC5=O)C6=O)nn4)c3)cn2)CC1 (stereo not drawn) [Compound 185]	< 0.1	0.1 to 1
CC1(N)CCN(c2cnc(Sc3cccc(NC(=O)CCCCCCCO[C@@H]4CCN(c5ncc(C(=O)NCc6ccc7c(c6)CN(C6CCC(=O)NC6=O)C7=O)cn5)C4)c3)cn2)CC1 (stereo partly drawn) [Compound 104]	< 0.1	> 1
CC1(N)CCN(c2cnc(Sc3cccc(NC(=O)CCCCCOC4CC5(CCN(c6ccc(C(=O)NCc7ccc8c(c7)CN(C7CCC(=O)NC7=O)C8=O)nn6)C5)C4)c3)cn2)CC1 (stereo not drawn) [Compound 166]	< 0.1	< 0.1
CC1(N)CCN(c2cnc(Sc3cccc(NC(=O)CCCCCC=C4CC5(CCN(c6ccc(C(=O)NCc7ccc8c(c7)CN(C7CCC(=O)NC7=O)C8=O)nn6)CC5)C4)c3)cn2)CC1 (stereo not drawn) [Compound 209]	< 0.1	> 1
COc1nc(N2CCC3(CN(CCCCCCC(=O)Nc4cccc(Sc5cnc(N6CCC(C)(N)CC6)cn5)c4)C3)C2)ccc1C(=O)NCc1ccc2c(c1)CN(C1CCC(=O)NC1=O)C2=O (stereo not drawn) [Compound 211]	< 0.1	< 0.1
CC1(N)CCN(c2cnc(Sc3cccc(NC(=O)CCCCCCN4CC5(CCN(c6ncc(C(=O)NCc7ccc8c(c7)CN(C7CCC(=O)NC7=O)C8=O)cc6C(F)(F)F)C5)C4)c3)cn2)CC1 (stereo not drawn) [Compound 170]	< 0.1	0.1 to 1
CC1(N)CCN(c2cnc(Sc3cccc(NC(=O)CCCCCCCOC4CCN(c5ccc(C(=O)NCc6ccc7c(c6)CN(C6CCC(=O)NC6=O)C7=O)nn5)CC4F)c3)cn2)CC1 (stereo not drawn) [Compound 146]	< 0.1	< 0.1
NC1CCN(c2cnc(Sc3cccc(NC(=O)CCCCN4CC5(CCN(c6ccc(C(=O)NCc7ccc8c(c7)CN(C7CCC(=O)NC7=O)C8=O)nn6)C5)C4)c3)cn2)CC1F (stereo not drawn) [Compound 140]	> 1	> 1
CC1(N)CCN(c2cnc(Sc3cccc(NC(=O)CCCCCCN4CC5(CCN(c6ccc(C(=O)NCc7ccc8c(c7)CN(C7CCC(=O)NC7=O)C8=O)cn6)C5)C4)c3)cn2)CC1 (stereo not drawn) [Compound 155]	< 0.1	< 0.1
NC1(CO)CCN(c2cnc(Sc3cccc(NC(=O)CCCCCCN4CC5(CCN(c6ccc(C(=O)NCc7ccc8c(c7)CN(C7CCC(=O)NC7=O)C8=O)nc6)C5)C4)c3)cn2)CC1 (stereo not drawn) [Compound 190]	0.1 to 1	> 1
Cc1ncsc1-c1ccc([C@H](C)NC(=O)[C@@H]2C[C@@H](O)CN2C(=O)[C@@H](NC(=O)c2ccc(N3CCC4(CN(CCC(=O)Nc5cccc(Sc6cnc(N7CCC(C)(N)CC7)cn6)c5)C4)C3)nn2)C(C)(C)C)cc1 [Compound 98]	< 0.1	0.1 to 1
COCC1(N)CCN(c2cnc(Sc3cccc(NC(=O)CCCCCCN4CC5(CCN(c6ccc(C(=O)NCc7ccc8c(c7)CN(C7CCC(=O)NC7=O)C8=O)nn6)C5)C4)c3)cn2)CC1 (stereo not drawn) [Compound 199]	< 0.1	< 0.1
CC1(N)CCN(c2cnc(Sc3cccc(NC(=O)CCCCCCCO[C@@H]4CN(c5ccc(C(=O)NCc6ccc7c(c6)CN(C6CCC(=O)NC6=O)C7=O)nn5)CC4(F)F)c3)cn2)CC1 (stereo partly drawn) [Compound 178]	< 0.1	< 0.1
CC1(N)CCN(c2cnc(Sc3cccc(NC(=O)CCCCCCN4CC5(CCN(c6cnc(C(=O)NCc7ccc8c(c7)CN(C7CCC(=O)NC7=O)C8=O)cn6)C5)C4)c3)cn2)CC1 (stereo not drawn) [Compound 179]	< 0.1	> 1
CC1(N)CCN(c2cnc(Sc3ccc(NC(=O)CCCCCCCCOC4CN(c5ncc(C(=O)NCc6ccc7c(c6)CN(C6CCC(=O)NC6=O)C7=O)cn5)C4)cc3)cn2)CC1 (stereo not drawn) [Compound 74]	< 0.1	0.1 to 1
CC1(N)CCN(c2cnc(Sc3cccc(NC(=O)/C=C/C(=O)N4CCN(CCCCCCCCC(=O)NCc5ccc6c(c5)CN(C5CCC(=O)NC5=O)C6=O)CC4)c3)cn2)CC1 (stereo not drawn) [Compound 55]	< 0.1	> 1
Cc1ncsc1-c1ccc([C@H](C)NC(=O)[C@@H]2C[C@@H](O)CN2C(=O)[C@@H](NC(=O)c2ccc(N3CCC4(CN(CCCCCCCC(=O)Nc5cccc(Sc6cnc(N7CCC(C)(N)CC7)cn6)c5)C4)C3)nn2)C(C)(C)C)cc1 [Compound 105]	< 0.1	0.1 to 1
CC1(N)CCN(c2cnc(Sc3cccc(NC(=O)CCCCCCCCN4CCN(c5ncc(C(=O)NCc6ccc7c(c6)CN(C6CCC(=O)NC6=O)C7=O)cn5)CC4)c3)cn2)CC1 (stereo not drawn) [Compound 48, 2-(4-(9-((3-((5-(4-amino-4-methylpyridin-1-yl)pyrazin-2-yl)thio)phenyl)amino)-9-oxononyl)piperazin-1-yl)-N-((2-(2,6-dioxopiperidin-3-yl)-1-oxoisoindol-5-yl)methyl)pyrimidine-5-formamide]	< 0.1	< 0.1
CC1(N)CCN(c2cnc(Sc3cccc(NC(=O)CCCCCOc4ccc(C5CCC(C(=O)NCc6ccc7c(c6)CN(C6CCC(=O)NC6=O)C7=O)CC5)cc4)c3)cn2)CC1 (stereo not drawn) [Compound 192]	< 0.1	> 1
CC1(N)CCN(c2cnc(Sc3cccc(NC(=O)CCCCCCN4CC5(CCN(C6CC(C(=O)NCc7ccc8c(c7)CN(C7CCC(=O)NC7=O)C8=O)C6)C5)C4)c3)cn2)CC1 (stereo not drawn) [Compound 160]	0.1 to 1	> 1
CC1(N)CCN(c2cnc(Sc3cccc(NC(=O)CCCCCCN4CC5(CCN(c6ncc(C(=O)NCc7ccc8c(c7)CN(C7CCC(=O)NC7=O)C8=O)cn6)C5)C4)c3)cn2)CC1 (stereo not drawn) [Compound 91]	< 0.1	0.1 to 1
CC1(N)CCN(c2cnc(Sc3cccc(NC(=O)CCCCCOc4ccc(C5CCC(C(=O)NCc6ccc7c(c6)CN(C6CCC(=O)NC6=O)C7=O)CC5)cc4)c3)cn2)CC1 (stereo not drawn) [Compound 191]	< 0.1	> 1
CC1(N)CCN(c2cnc(Sc3cccc(NC(=O)CCCCCCOC4CC5CN(c6ccc(C(=O)NCc7ccc8c(c7)CN(C7CCC(=O)NC7=O)C8=O)nn6)CC5C4)c3)cn2)CC1 (stereo not drawn) [Compound 183]	< 0.1	> 1
CC1(N)CCN(c2cnc(Sc3cccc(NC(=O)CCCCCCCO[C@H]4CCN(c5ccc(C(=O)NCc6ccc7c(c6)CN(C6CCC(=O)NC6=O)C7=O)nn5)C4)c3)cn2)CC1 (stereo partly drawn) [Compound 102]	< 0.1	< 0.1
